Measurements reported in patent US10301299B2, “Glycosidase inhibitors” (Merck Patent GmbH, priority 2013, dated 2019).

How the values were obtained:
Tg(tauP301L)4510 mice [1] = assay: Immunohistochemistry (AT8) and Bielschowsky stain of hippocampus in Tg4510 mice; type: in vivo, mouse; details: chronic 4 months
Procedure: (§1) Animals: Tg(tauP301L)4510 mice were generated as previously described (Santacruz et al., 2005, Science 309: 476-481). Animals were bred and housed at the McLaughlin Research Institute (Great Falls, Mont.). All experiments were approved by the MRI Institutional Animal Care and Use Committee (IACUC).
Immunohistochemistry: To examine changes in tangle pathology, a hemibrain was dissected and immersion fixed in 10% neutral buffered formalin for 24-48 h and subsequently embedded in paraffin blocks. 10 micron serial coronal sections were mounted onto Superfrost Plus slides, and stained using Bond Intense R kit. To detect dystrophic AT8 neurons, mounted slides were pretreated with antigen retrieval solutions for 10 min followed by washes with BOND wash buffer. Sections were subsequently quenched with hydrogen peroxide in Bond Intense R kit, blocked with M.O.M. blocking buffer (M.O.M Immunodetection Kits, Vector Laboratories), and then incubated with pS202/205 primary antibody (1:500; ThermoScientific). Sections were then incubated sequentially with biotinylated donkey anti-mouse secondary antibody (1:200; Jackson Immunoresearch), Streptavidin-HRP, and 3,3′-diaminobenzidine (both BOND Intense R kit). To detect agyrophilic tangles, sections were deparafinized, rehydrated in distilled water and treated with formaldehyde (4%) overnight at 37° C. Sections were washed in tap water, incubated in a 20% silver nitrate solution for 15 min in the dark, washed, incubated with ammoniated silver solution for 10 min in the dark, washed in ammonia water, and treated with developer. Sections were subsequently washed in ammonia water, distilled water, thiosulfate sodium, dehydrated and mounted.

Tg(tauP301L)4510 mice [2] = assay: Western blot of O-GlcNAcylation and tau phosphorylation in brain of Tg4510 mice; type: in vivo, mouse
Procedure: as §1
Tau immunoprecipitation: To immunoprecipitate tau protein from brain lysates a Crosslink Immunoprecipitation kit (Pierce 26147) was used. The A/G resin was crosslinked to 10 μg of the HT7 tau antibody (Thermo Scientific MN1000) or control mouse IgG (Santa Cruz Biotech sc-2025) via the manufacturer's protocol. 250 μg of brain lysates prepared as described below was incubated with the resin-coupled tau antibody overnight at 4-C. Samples were eluted with 50 μl of low pH Elution buffer and immediately centrifuged into collection tubes containing 5 μl of 1M Tris, pH 9.5. Immunoprecipitated tau was subjected to Western blotting as described below.
Western Blot: To examine changes in O-GlcNAcylation and phosphorylation, animals were euthanized 4 h after injection in the acute or subchronic studies and 24 h after the last injection in the chronic study. Hemi-forebrains were rapidly dissected and frozen on dry ice. Tissue samples were homogenized in Phosphosafe Buffer (EMD Chemicals), followed by a low-speed centrifugation (15,000 g) to remove cellular debris. The resulting supernatant (low-speed supernatant, Lss) was assayed to determine protein concentrations by Lowry method. O-GlcNAcylation and phosphorylation were determined in 20 μg protein samples subjected to 4-15% SDS-PAGE (Tris-HCl gels, Bio-Rad), followed by a transfer to nitrocellulose membranes (Invitrogen, IBlot system). Membranes were blocked in Licor blocking buffer at room temperature for 1 h and incubated in primary antibody overnight at 4° C. Total protein O-GlcNAcylation was detected using the RL2 antibody (1:500, ThermoScientific), tau O-GlcNAcylation was detected using the Otau(S400) antibody (1:500) and tau phosphorylation was detected using AT8 (1:500, ThermoScientific), pS396, pS262, pS356 (1:500, Abcam) and pS400 (1:5000, GenScript). GAPDH (1:1000, Abcam) or total tau (1:50,000 ThermoScientific) antibodies served as internal loading controls. Membranes were incubated with species-specific fluorophore-conjugated secondary (1:10,000; Licor) antibodies for 1 h at room temperature and detected using the Licor Odyssey. […]

Q: Which “pS202/205 (AT8) positive dystrophic neurons” value (Tg(tauP301L)4510 mice [1]; CA1 region of the hippocampus) does the source give for `CCN=C1N[C@@H]2[C@@H](O)[C@H](O)[C@@H](CO)O[C@@H]2S1` [ThiametG] here?
A: The value was “significantly reduced”.

Q: And the “tangle pathology (Bielschowsky staining)” value (Tg(tauP301L)4510 mice [1]; CA1 region of the hippocampus)?
A: The value was “significant reduction”.

Q: And the “pS202/205 (AT8) positive dystrophic neurons” value (Tg(tauP301L)4510 mice [1]; CA3 region of the hippocampus)?
A: Its value is “significantly reduced”.

Q: And the “tangle burden (Bielschowsky staining)” value (Tg(tauP301L)4510 mice [1]; CA3 region of the hippocampus)?
A: The value was “no difference”.

Q: What about the “tau O-GlcNAcylation elevated (Otau(S400))” value (Tg(tauP301L)4510 mice [2]; 4 months of dosing) of the same compound?
A: The value was 9 fold.

Q: And the “levels of total protein O-GlcNAcylation” value (Tg(tauP301L)4510 mice [2]; 4 months, 500 mg/kg/day)?
A: Its value is 185%.

Q: What about the “tau phosphorylation at S202/205” value (Tg(tauP301L)4510 mice [2]; 14 days) of the same compound?
A: The value was “returned towards basal levels”.

Q: And the “tau phosphorylation at S262” value (Tg(tauP301L)4510 mice [2]; 14 days)?
A: The value was “returned towards basal levels”.

Q: What about the “tau phosphorylation at S356” value (Tg(tauP301L)4510 mice [2]; 14 days) of the same compound?
A: Its value is “still significantly reduced”.

Q: What about the “tau phosphorylation at S396” value (Tg(tauP301L)4510 mice [2]; 14 days) of the same compound?
A: The value was “returned towards basal levels”.

Q: What about the “total protein O-GlcNAcylation in the CNS” value (Tg(tauP301L)4510 mice [2]; 14 days of administration, 500 mg/kg/day, vs vehicle) of the same compound?
A: The value was “significant increase”.

Q: What about the “tau phosphorylation at S400” value (Tg(tauP301L)4510 mice [2]; acute treatment) of the same compound?
A: The value was “did not alter”.

Q: What about the “increase in tau O-GlcNAcylation (Otau(S400))” value (Tg(tauP301L)4510 mice [2]; repeated injection (14 days), vs vehicle) of the same compound?
A: Its value is 9 fold.

Q: And the “tau O-GlcNAcylation (Otau(S400))” value (Tg(tauP301L)4510 mice [2]; single injection)?
A: Its value is “small increase”.

Q: What about the “tau phosphorylation at S202/205” value (Tg(tauP301L)4510 mice [2]; single injection) of the same compound?
A: The value was “reduced”.

Q: And the “tau phosphorylation at S262” value (Tg(tauP301L)4510 mice [2]; single injection)?
A: Its value is “reduced”.

Q: What about the “tau phosphorylation at S356” value (Tg(tauP301L)4510 mice [2]; single injection) of the same compound?
A: Its value is “reduced”.

Q: What about the “tau phosphorylation at S396” value (Tg(tauP301L)4510 mice [2]; single injection) of the same compound?
A: The value was “reduced”.

Q: What about the “total protein O-GlcNAcylation in the CNS” value (Tg(tauP301L)4510 mice [2]; single injection, 500 mg/kg/day, 4 h, vs vehicle) of the same compound?
A: The value was “significant increase”.
